Laboratory results as given in patent US20230017045A1, “PYRIDINE AND PYRIMIDINE CARBOXYLATE HERBICIDES AND METHODS OF USE THEREOF” (Dow AgroSciences LLC, priority 2017, published 2023).

Tested on: test plant species
Experiment: Post-emergent herbicidal activity test (greenhouse, foliar spray, visual growth reduction)
Assay type: in vivo
Conditions: post-emergence, 336 h, ALOMY: blackgrass (Alopecurus myosuroides), 140 g ai/ha, 14 days after application, read-out: Visual Growth Reduction (%) 14 Days After Application, ALOMY
Outline: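 Visual scoring 14 d after treatment (0 = no injury, 100 = complete control) against nontreated and solvent-blank plants gave percent growth reduction. Foliar application used a track sprayer delivering 187 L/ha to seedlings at first or second true leaf stage, grown at 23–29 °C day, ~15 h photoperiod.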

| SMILES | pest or weed control at 140 g/ha [%] |
| --- | --- |
| COC(=O)c1nc(-c2cc3c(cc2F)OC(F)(F)O3)c(Cl)cc1Cl [F174, Methyl 3,5-dichloro-6-(2,2,6-trifluorobenzo[d] [1,3]dioxol-5-yl)picolinate] | 0 to 29 |

Same assay, conditions: post-emergence, 336 h, AMARE: redroot pigweed (Amaranthus retroflexus), 140 g ai/ha, 14 days after application, read-out: Visual Growth Reduction (%) 14 Days After Application, AMARE

| SMILES | pest or weed control at 140 g/ha [%] |
| --- | --- |
| COC(=O)c1nc(-c2cc3c(cc2F)OC(F)(F)O3)c(Cl)cc1Cl [F174, Methyl 3,5-dichloro-6-(2,2,6-trifluorobenzo[d] [1,3]dioxol-5-yl)picolinate] | 85 to 94 |

Same assay, conditions: post-emergence, 336 h, AVEFA: wild oat (Avena fatua), 140 g ai/ha, 14 days after application, read-out: Visual Growth Reduction (%) 14 Days After Application, AVEFA

| SMILES | pest or weed control at 140 g/ha [%] |
| --- | --- |
| COC(=O)c1nc(-c2cc3c(cc2F)OC(F)(F)O3)c(Cl)cc1Cl [F174, Methyl 3,5-dichloro-6-(2,2,6-trifluorobenzo[d] [1,3]dioxol-5-yl)picolinate] | 0 to 29 |

Same assay, conditions: post-emergence, 336 h, CHEAL: lambsquarters (Chenopodium album), 140 g ai/ha, 14 days after application, read-out: Visual Growth Reduction (%) 14 Days After Application, CHEAL

| SMILES | pest or weed control at 140 g/ha [%] |
| --- | --- |
| COC(=O)c1nc(-c2cc3c(cc2F)OC(F)(F)O3)c(Cl)cc1Cl [F174, Methyl 3,5-dichloro-6-(2,2,6-trifluorobenzo[d] [1,3]dioxol-5-yl)picolinate] | 85 to 94 |

Same assay, conditions: post-emergence, 336 h, CIRAR: canada thistle (Cirsium arvense), 140 g ai/ha, 14 days after application, read-out: Visual Growth Reduction (%) 14 Days After Application, CIRAR

| SMILES | pest or weed control at 140 g/ha [%] |
| --- | --- |
| COC(=O)c1nc(-c2cc3c(cc2F)OC(F)(F)O3)c(Cl)cc1Cl [F174, Methyl 3,5-dichloro-6-(2,2,6-trifluorobenzo[d] [1,3]dioxol-5-yl)picolinate] | 0 to 29 |

Same assay, conditions: post-emergence, 336 h, CYPES: yellow nutsedge (Cyperus esculentus), 140 g ai/ha, 14 days after application, read-out: Visual Growth Reduction (%) 14 Days After Application, CYPES

| SMILES | pest or weed control at 140 g/ha [%] |
| --- | --- |
| COC(=O)c1nc(-c2cc3c(cc2F)OC(F)(F)O3)c(Cl)cc1Cl [F174, Methyl 3,5-dichloro-6-(2,2,6-trifluorobenzo[d] [1,3]dioxol-5-yl)picolinate] | 0 to 29 |

Same assay, conditions: post-emergence, 336 h, DIGSA: crabgrass (Digitaria sanguinalis), 140 g ai/ha, 14 days after application, read-out: Visual Growth Reduction (%) 14 Days After Application, DIGSA

| SMILES | pest or weed control at 140 g/ha [%] |
| --- | --- |
| COC(=O)c1nc(-c2cc3c(cc2F)OC(F)(F)O3)c(Cl)cc1Cl [F174, Methyl 3,5-dichloro-6-(2,2,6-trifluorobenzo[d] [1,3]dioxol-5-yl)picolinate] | 85 to 94 |

Same assay, conditions: post-emergence, 336 h, ECHCG: barnyardgrass (Echinochloa crus-galli), 140 g ai/ha, 14 days after application, read-out: Visual Growth Reduction (%) 14 Days After Application, ECHCG

| SMILES | pest or weed control at 140 g/ha [%] |
| --- | --- |
| COC(=O)c1nc(-c2cccc(F)c2OC)c(F)cc1Cl [F264, Methyl 3-chloro-5-fluoro-6-(3-fluoro-2-methoxyphenyl) picolinate] | 0 to 29 |
| COC(=O)c1nc(-c2cc3c(cc2F)OC(F)(F)O3)c(Cl)cc1Cl [F174, Methyl 3,5-dichloro-6-(2,2,6-trifluorobenzo[d] [1,3]dioxol-5-yl)picolinate] | 0 to 29 |

Same assay, conditions: post-emergence, 336 h, IPOHE: ivy-leaf morning glory (Ipomoea hederacea), 140 g ai/ha, 14 days after application, read-out: Visual Growth Reduction (%) 14 Days After Application, IPOHE

| SMILES | pest or weed control at 140 g/ha [%] |
| --- | --- |
| COC(=O)c1nc(-c2cccc(F)c2OC)c(F)cc1Cl [F264, Methyl 3-chloro-5-fluoro-6-(3-fluoro-2-methoxyphenyl) picolinate] | 95 to 100 |
| COC(=O)c1nc(-c2cc3c(cc2F)OC(F)(F)O3)c(Cl)cc1Cl [F174, Methyl 3,5-dichloro-6-(2,2,6-trifluorobenzo[d] [1,3]dioxol-5-yl)picolinate] | 95 to 100 |

Same assay, conditions: post-emergence, 336 h, KCHSC: kochia (Bassia scoparia), 140 g ai/ha, 14 days after application, read-out: Visual Growth Reduction (%) 14 Days After Application, KCHSC

| SMILES | pest or weed control at 140 g/ha [%] |
| --- | --- |
| COC(=O)c1nc(-c2cccc(F)c2OC)c(F)cc1Cl [F264, Methyl 3-chloro-5-fluoro-6-(3-fluoro-2-methoxyphenyl) picolinate] | 0 to 29 |
| COC(=O)c1nc(-c2cc3c(cc2F)OC(F)(F)O3)c(Cl)cc1Cl [F174, Methyl 3,5-dichloro-6-(2,2,6-trifluorobenzo[d] [1,3]dioxol-5-yl)picolinate] | 0 to 29 |

Same assay, conditions: post-emergence, 336 h, ORYSA: rice (Oryza sativa), 140 g ai/ha, 14 days after application, read-out: Visual Growth Reduction (%) 14 Days After Application, ORYSA

| SMILES | pest or weed control at 140 g/ha [%] |
| --- | --- |
| COC(=O)c1nc(-c2cccc(F)c2OC)c(F)cc1Cl [F264, Methyl 3-chloro-5-fluoro-6-(3-fluoro-2-methoxyphenyl) picolinate] | 0 to 29 |
| COC(=O)c1nc(-c2cc3c(cc2F)OC(F)(F)O3)c(Cl)cc1Cl [F174, Methyl 3,5-dichloro-6-(2,2,6-trifluorobenzo[d] [1,3]dioxol-5-yl)picolinate] | 0 to 29 |

Same assay, conditions: post-emergence, 336 h, SETFA: giant foxtail (Setaria faberi), 140 g ai/ha, 14 days after application, read-out: Visual Growth Reduction (%) 14 Days After Application, SETFA

| SMILES | pest or weed control at 140 g/ha [%] |
| --- | --- |
| COC(=O)c1nc(-c2cccc(F)c2OC)c(F)cc1Cl [F264, Methyl 3-chloro-5-fluoro-6-(3-fluoro-2-methoxyphenyl) picolinate] | 0 to 29 |
| COC(=O)c1nc(-c2cc3c(cc2F)OC(F)(F)O3)c(Cl)cc1Cl [F174, Methyl 3,5-dichloro-6-(2,2,6-trifluorobenzo[d] [1,3]dioxol-5-yl)picolinate] | 30 to 44 |

Same assay, conditions: post-emergence, 336 h, SORVU: grain sorghum (Sorghum vulgare), 140 g ai/ha, 14 days after application, read-out: Visual Growth Reduction (%) 14 Days After Application, SORVU

| SMILES | pest or weed control at 140 g/ha [%] |
| --- | --- |
| COC(=O)c1nc(-c2cccc(F)c2OC)c(F)cc1Cl [F264, Methyl 3-chloro-5-fluoro-6-(3-fluoro-2-methoxyphenyl) picolinate] | 0 to 29 |
| COC(=O)c1nc(-c2cc3c(cc2F)OC(F)(F)O3)c(Cl)cc1Cl [F174, Methyl 3,5-dichloro-6-(2,2,6-trifluorobenzo[d] [1,3]dioxol-5-yl)picolinate] | 85 to 94 |

Same assay, conditions: post-emergence, 336 h, STEME: common chickweed (Stellaria media), 140 g ai/ha, 14 days after application, read-out: Visual Growth Reduction (%) 14 Days After Application, STEME

| SMILES | pest or weed control at 140 g/ha [%] |
| --- | --- |
| COC(=O)c1nc(-c2cccc(F)c2OC)c(F)cc1Cl [F264, Methyl 3-chloro-5-fluoro-6-(3-fluoro-2-methoxyphenyl) picolinate] | 0 to 29 |
| COC(=O)c1nc(-c2cc3c(cc2F)OC(F)(F)O3)c(Cl)cc1Cl [F174, Methyl 3,5-dichloro-6-(2,2,6-trifluorobenzo[d] [1,3]dioxol-5-yl)picolinate] | 0 to 29 |

Same assay, conditions: post-emergence, 336 h, TRZAS: wheat, spring (Triticum aestivum), 140 g ai/ha, 14 days after application, read-out: Visual Growth Reduction (%) 14 Days After Application, TRZAS

| SMILES | pest or weed control at 140 g/ha [%] |
| --- | --- |
| COC(=O)c1nc(-c2cccc(F)c2OC)c(F)cc1Cl [F264, Methyl 3-chloro-5-fluoro-6-(3-fluoro-2-methoxyphenyl) picolinate] | 0 to 29 |
| COC(=O)c1nc(-c2cc3c(cc2F)OC(F)(F)O3)c(Cl)cc1Cl [F174, Methyl 3,5-dichloro-6-(2,2,6-trifluorobenzo[d] [1,3]dioxol-5-yl)picolinate] | 0 to 29 |

Same assay, conditions: post-emergence, 336 h, blackgrass (Alopecurus myosuroides), 14 Days After Application, 140 g ai/ha, read-out: Visual Growth Reduction (%) ALOMY

| SMILES | pest or weed control at 140 g/ha [%] |
| --- | --- |
| COC(=O)c1nc(-c2cccc(F)c2OC)c(F)cc1Cl [F264, Methyl 3-chloro-5-fluoro-6-(3-fluoro-2-methoxyphenyl) picolinate] | 0 to 29 |

Same assay, conditions: post-emergence, 336 h, canada thistle (Cirsium arvense), 14 Days After Application, 140 g ai/ha, read-out: Visual Growth Reduction (%) CIRAR

| SMILES | pest or weed control at 140 g/ha [%] |
| --- | --- |
| COC(=O)c1nc(-c2cccc(F)c2OC)c(F)cc1Cl [F264, Methyl 3-chloro-5-fluoro-6-(3-fluoro-2-methoxyphenyl) picolinate] | 30 to 44 |

Same assay, conditions: post-emergence, 336 h, crabgrass (Digitaria sanguinalis), 14 Days After Application, 140 g ai/ha, read-out: Visual Growth Reduction (%) DIGSA

| SMILES | pest or weed control at 140 g/ha [%] |
| --- | --- |
| COC(=O)c1nc(-c2cccc(F)c2OC)c(F)cc1Cl [F264, Methyl 3-chloro-5-fluoro-6-(3-fluoro-2-methoxyphenyl) picolinate] | 0 to 29 |

Same assay, conditions: post-emergence, 336 h, lambsquarters (Chenopodium album), 14 Days After Application, 140 g ai/ha, read-out: Visual Growth Reduction (%) CHEAL

| SMILES | pest or weed control at 140 g/ha [%] |
| --- | --- |
| COC(=O)c1nc(-c2cccc(F)c2OC)c(F)cc1Cl [F264, Methyl 3-chloro-5-fluoro-6-(3-fluoro-2-methoxyphenyl) picolinate] | 75 to 84 |

Same assay, conditions: post-emergence, 336 h, redroot pigweed (Amaranthus retroflexus), 14 Days After Application, 140 g ai/ha, read-out: Visual Growth Reduction (%) AMARE

| SMILES | pest or weed control at 140 g/ha [%] |
| --- | --- |
| COC(=O)c1nc(-c2cccc(F)c2OC)c(F)cc1Cl [F264, Methyl 3-chloro-5-fluoro-6-(3-fluoro-2-methoxyphenyl) picolinate] | 0 to 29 |

Same assay, conditions: post-emergence, 336 h, wild oat (Avena fatua), 14 Days After Application, 140 g ai/ha, read-out: Visual Growth Reduction (%) AVEFA

| SMILES | pest or weed control at 140 g/ha [%] |
| --- | --- |
| COC(=O)c1nc(-c2cccc(F)c2OC)c(F)cc1Cl [F264, Methyl 3-chloro-5-fluoro-6-(3-fluoro-2-methoxyphenyl) picolinate] | 0 to 29 |

Same assay, conditions: post-emergence, 336 h, yellow nutsedge (Cyperus esculentus), 14 Days After Application, 140 g ai/ha, read-out: Visual Growth Reduction (%) CYPES

| SMILES | pest or weed control at 140 g/ha [%] |
| --- | --- |
| COC(=O)c1nc(-c2cccc(F)c2OC)c(F)cc1Cl [F264, Methyl 3-chloro-5-fluoro-6-(3-fluoro-2-methoxyphenyl) picolinate] | 0 to 29 |
